Results: PMC7997635 (Journal of medicinal chemistry, 2021)
In brackets after ≈: the same amount, converted by molar mass. Each block holds one compound with its values, some of them ahead of it.

Experiments:
male stage V gametocytes = test: Dual gamete formation assay; format: cell-based; conditions: Plasmodium falciparum, read-out: DGFA male gametocytes inhibition
[1] = HepG2tox assay run with the liver stage assay; format: cell-based, human; conditions: human, HepG2 cells, HepG2 CC50 (life cycle profiling), two independent replicates
[2] = system: P. berghei liver stage (Pb-Luc sporozoites in HepG2-A16-CD81EGFP cells); test: P. berghei liver stage assay; format: cell-based, Plasmodium berghei; conditions: for EC50: read-out: Pb liver stage EC50, two independent replicates
[3] = Kinetic solubility in pH 2.0 and pH 6.5 buffers; format: physicochemical
P. falciparum Dd2 = test: SYBR Green parasite growth inhibition assay, 72 h; format: cell-based, Plasmodium falciparum
P. falciparum [4] = conditions: previously characterized with the standard PRR assay ref 34; cited from earlier work
[5] = Solubility in NP-40/DMSO buffer of the heme biomineralization assay; format: physicochemical
[6] = system: conversion of hematin (Fe(III)PPIX) to β-hematin; format: biochemical; conditions: pH 4.8 acetate, NP-40, 37 °C, 5 h; for IC50: read-out: IC50 for inhibition of βH formation
HepG2 = test: HepG2tox assay run with the liver stage assay; format: cell-based, human; conditions: read-out: HepG2 CC50 (life cycle profiling); two independent replicates
P. falciparum NF54-luc = test: Bioluminescence relative rate of kill; format: cell-based, Plasmodium falciparum; conditions: 6 h exposure, 30× to […] EC50, compared with benchmarks
P. falciparum [7] = test: PRR drug washout kill rate assay; format: cell-based, Plasmodium falciparum; conditions: 10× EC50, 24 or 48 h
[8] = system: Hz formation in NF54 parasites; test: Cellular heme fractionation assay; format: cell-based; conditions: Plasmodium falciparum, NF54, 32 h, read-out: EC50 (heme), drug concentration giving 50% response of 'free' heme Fe
[9] = HepG2 in vitro cytotoxicity; format: cell-based; conditions: human, HepG2 cells
P. falciparum 3D7 [10] = test: Two-color flow cytometry kill rate assay; format: cell-based, Plasmodium falciparum; conditions: 10× EC50, 24 or 48 h
P. falciparum 3D7 [11] = test: SYBR Green parasite growth inhibition assay, 72 h; format: cell-based; conditions: Plasmodium falciparum, 3D7, 72 h, read-out: P. falciparum EC50 Pf3D7, 72 h SYBR Green assay, ABS parasites; mean ± std dev (n) or individual replicates
PfNF54 parasites = test: Parasite survival concentration response; format: cell-based; conditions: Plasmodium falciparum, read-out: EC50 (survival), parasite survival
P. falciparum 3D7 [12] = test: 48 h 3H-hypoxanthine incorporation assay; format: cell-based; conditions: Plasmodium falciparum, 3D7, 48 h, read-out: EC50, 48 h hypoxanthine assay
[13] = phosphate buffered saline pH 6.5, pH 6.5

Structure (SMILES): Cc1ccccc1N(C)C(=O)C(c1cccnc1)N(Cc1cc(C(F)(F)F)ccc1F)C1CC1 (stereo not drawn) [Compound 32, 2-(Cyclopropyl(2-fluoro-5-(trifluoromethyl)benzyl)amino)-N-methyl-2-(pyridin-3-yl)-N-(o-tolyl)acetamide]
inhibition at 25 µM (male stage V gametocytes): ~60% | CC50 [1]: 24 µM | Pb liver stage EC50 relative to P. falciparum blood stage EC50 ([2]; fold higher): 20 to 30 fold | EC50 [2]: 16 µM | solubility kinetic [3, 13]: 1.5 to 2.9 µg/mL (≈ 3.18 to 6.15 µM)

Structure (SMILES): Cc1ccccc1N(C)C(=O)C(c1cncnc1)N(Cc1cccc(OC(F)(F)F)c1)C1CC1 (stereo not drawn) [Compound 27, 2-(Cyclopropyl(3-(trifluoromethoxy)benzyl)amino)-N-methyl-2-(pyrimidin-5-yl)-N-(o-tolyl)acetamide]
Fold Diff in EC50, Dd2 relative to 3D7 (P. falciparum Dd2): 1.4 – 3.0 fold

solubility kinetic [3, 13]: 25 to 50 µg/mL (≈ 59.9 to 120 µM)
Structure (SMILES): O=C(C(c1cccnc1)N(Cc1cccc(C(F)(F)F)c1)C1CC1)N1CCCCC1 (stereo not drawn) [Compound 34, 2-(Cyclopropyl(3-(trifluoromethyl)benzyl)amino)-1-(piperidin-1-yl)-2-(pyridin-3-yl)ethan-1-one]

Structure (SMILES): O=C1C(O)=C([C@H]2CC[C@H](c3ccc(Cl)cc3)CC2)C(=O)c2ccccc21 [ATQ, atovaquone]
rate of kill class of benchmark compound (P. falciparum [4]): slow-kill

Structure (SMILES): Cc1ccccc1-n1nnnc1C(c1cccnc1)N(Cc1cccc(C(F)(F)F)c1)C1CC1 (stereo not drawn) [Compound 9, N-(Pyridin-3-yl(1-(o-tolyl)-1H-tetrazol-5-yl)methyl)-N-(3-(trifluoromethyl)benzyl) cyclopropanamine]
solubility [5]: ≥ 2000 µM | inhibition of βH formation (in words) [6]: inhibited βH formation with the same potency as MFQ | CC50 [1]: 19 µM | CC50 (HepG2): > 17 µM | EC50 [2]: 12 µM | solubility kinetic ([3]; pH 2.0 buffer, pH 2): 12 to 23 µg/mL (≈ 25.8 to 49.5 µM) | solubility kinetic [3, 13]: 1.5 to 2.9 µg/mL (≈ 3.23 to 6.24 µM)

solubility kinetic ([3]; pH 2.0 buffer, pH 2): 12.5 to 25 µg/mL (≈ 25.3 to 50.6 µM) | solubility kinetic [3, 13]: 1.6 to 3.1 µg/mL (≈ 3.24 to 6.27 µM)
Structure (SMILES): COc1ccc(C(F)(F)F)cc1CN(C1CC1)C(c1cccnc1)c1nnnn1-c1ccccc1C (stereo not drawn) [Compound 7, N-(2-methoxy-5-(trifluoromethyl)benzyl)-N-(pyridin-3-yl(1-(o-tolyl)-1H-tetrazol-5-yl)methyl)cyclopropanamine]

Structure (SMILES): Cc1ccccc1N(C)C(=O)C(c1cncnc1)N(Cc1cccc(C(F)(F)F)c1)C1CC1 (stereo not drawn) [Compound 23, 2-(Cyclopropyl(3-(trifluoromethyl)benzyl)amino)-N-methyl-2-(pyrimidin-5-yl)-N-(o-tolyl)acetamide]
rate of kill profile in BRRoK assay (P. falciparum NF54-luc): fast kill kinetics | solubility kinetic ([3]; pH 2.0 buffer, pH 2): 11 to 23 µg/mL (≈ 24.2 to 50.6 µM)

Structure (SMILES): Cc1ccccc1-n1nnnc1C(c1cncnc1)N(Cc1cccc(C(F)(F)F)c1)C1CC1 (stereo not drawn) [Compound 10, N-(Pyrimidin-5-yl(1-(o-tolyl)-1H-tetrazol-5-yl)methyl)-N-(3-(trifluoromethyl)benzyl)cyclopropanamine]
kill kinetics in PRR washout assay (P. falciparum [7]): kill kinetics similar to CQ, though slower than ART | EC50 [8]: 1.04 µM | solubility [5]: ≥ 2000 µM | inhibition of βH formation (in words) [6]: weaker inhibition | CC50 at 72 h [9]: > 30 µM | rate of kill profile in BRRoK assay (P. falciparum NF54-luc): fast kill kinetics | kill kinetics in two-color FACS assay (P. falciparum 3D7 [10]): kill kinetics similar to CQ, though slower than ART | EC50 (P. falciparum 3D7 [11]): 0.32 µM | solubility kinetic ([3]; pH 2.0 buffer, pH 2): 1.5 to 2.9 µg/mL (≈ 3.22 to 6.23 µM) | solubility kinetic [3, 13]: 1.5 to 2.9 µg/mL (≈ 3.22 to 6.23 µM)

EC50 (P. falciparum 3D7 [11]): ~0.3 µM
Structure (SMILES): CCCN(C(c1cccnc1)c1nnnn1-c1ccccc1C)C1(c2cccc(C(F)(F)F)c2)CC1 (stereo not drawn) [Compound 21, N-Propyl-N-(pyridin-3-yl(1-(o-tolyl)-1H-tetrazol-5-yl)methyl)-1-(3-(trifluoromethyl)phenyl)cyclopropan-1-amine]
selectivity ratio at 72 h [9]: 40 to 50

Structure (SMILES): CCN(CC)CCCC(C)Nc1ccnc2cc(Cl)ccc12 (stereo not drawn) [CQ, chloroquine]
EC50 [8]: 0.058 µM | rate of kill class of benchmark compound (P. falciparum [4]): fast-kill | EC50 (PfNF54 parasites): 0.015 µM

solubility kinetic [3, 13]: 6.3 to 12.5 µg/mL (≈ 13.9 to 27.6 µM)
Structure (SMILES): Cc1ccccc1N(C)C(=O)C(c1cccnc1)N(Cc1cccc(C(F)(F)F)c1)C1CC1 (stereo not drawn) [Compound 22, 2-(Cyclopropyl(3-(trifluoromethyl)benzyl)amino)-N-methyl-2-(pyridin-3-yl)-N-(o-tolyl)acetamide]

EC50 (P. falciparum 3D7 [11]): ~1 µM
Structure (SMILES): COc1ccc(C(F)(F)F)cc1CN(C)C(c1cccnc1)c1nnnn1-c1ccccc1C (stereo not drawn) [Compound 6, N-(2-methoxy-5-(trifluoromethyl)benzyl)-N-methyl-1-(pyridin-3-yl)-1-(1-(o-tolyl)-1H-tetrazol-5-yl)methenamine]

IC50 [6]: ≤ 100 µM
Structure (SMILES): COc1ccc2nc3cc(Cl)ccc3c(Nc3cc(CN4CCCC4)c(O)c(CN4CCCC4)c3)c2n1 [pyronaridine, reference compound]

IC50 [6]: ≤ 100 µM
Structure (SMILES): CCN(CC)Cc1cc(Nc2ccnc3cc(Cl)ccc23)ccc1O [amodiaquine, reference compound]

IC50 [6]: ≤ 100 µM
Structure (SMILES): O[C@@H](c1cc(C(F)(F)F)nc2c(C(F)(F)F)cccc12)[C@H]1CCCCN1 (racemic) [MFQ, mefloquine, reference compound]

Structure (SMILES): CCC(C(=O)Nc1cccc(Cl)c1)N1C(=O)C(C)N=C(c2ccccc2)c2ccccc21 (stereo not drawn) [Compound 1, N-(3-Chlorophenyl)-2-(3-methyl-2-oxo-5-phenyl-2,3-dihydro-1H-benzo[e][1,4]diazepin-1-yl)butanamide]
rate of kill profile in BRRoK assay (P. falciparum NF54-luc): slow kill kinetics

Structure (SMILES): COc1ccc(Br)cc1CN(C)C(c1ccccc1)c1nnnn1-c1ccccc1C (racemic) [Compound 3, N-(5-bromo-2-methoxybenzyl)-N-methyl-1-phenyl-1-(1-(o-tolyl)-1H-tetrazol-5-yl)methenamine]
solubility [5]: ≥ 2000 µM | inhibition of βH formation (in words) [6]: nearly inactive | rate of kill profile in BRRoK assay (P. falciparum NF54-luc): fast kill mechanism

Structure (SMILES): CC(=O)c1ccc(NC(=O)c2ccc(NC(=O)C3COc4ccccc4O3)cc2)cc1 (stereo not drawn) [Compound 2, N-(4-((4-Acetylphenyl)carbamoyl)phenyl)-2,3-dihydrobenzo[b][1,4]dioxine-2-carboxamide]
rate of kill profile in BRRoK assay (P. falciparum NF54-luc): slow kill kinetics

Structure (SMILES): C[C@@H]1CC[C@H]2[C@@H](C)C(=O)O[C@@H]3O[C@@]4(C)CC[C@@H]1[C@]32OO4 [ART, artemisinin]
rate of kill class of benchmark compound (P. falciparum [4]): fast-kill

Structure (SMILES): CCCN(C(c1cncnc1)c1nnnn1-c1ccccc1C)C1(c2cccc(C(F)(F)F)c2)CC1 (stereo not drawn) [Compound 20, N-Propyl-N-(pyrimidin-5-yl(1-(o-tolyl)-1H-tetrazol-5-yl)methyl)-1-(3-(trifluoromethyl)phenyl)cyclopropan-1-amine]
selectivity ratio at 72 h [9]: 40 to 50

Structure (SMILES): Cc1ccccc1N(C)C(=O)C(c1cccnc1)N(Cc1cccc(OC(F)(F)F)c1)C1CC1 (stereo not drawn) [Compound 26, 2-(Cyclopropyl(3-(trifluoromethoxy)benzyl)amino)-N-methyl-2-(pyridin-3-yl)-N-(o-tolyl)acetamide]
Fold Diff in EC50, Dd2 relative to 3D7 (P. falciparum Dd2): 3–5 fold

EC50 [8]: > 0.1 µM | EC50 (P. falciparum 3D7 [12]): 0.094 µM
Structure (SMILES): CCc1nc(N)nc(N)c1-c1ccc(Cl)cc1 [PYR, pyrimethamine]
EC50 (PfNF54 parasites): 0.033 µM

Structure (SMILES): Cc1cc(Nc2ccc(S(F)(F)(F)(F)F)cc2)n2nc(C(C)(F)F)nc2n1 [DSM265]
rate of kill class of benchmark compound (P. falciparum [4]): slow-kill
